{"source": "patent US20240382509A1", "about": "“Cannabinoids C- and O-glycosides possessing anti-proliferative and anti-metastatic properties and process for preparation thereof” (Council of Scientific and Industrial Research, priority 2021, published 2024)", "key": {"[1]": {"test_system": "4T1 mouse mammary carcinoma cells", "assay": "4T1 allograft breast cancer model, anti-tumor and anti-metastatic efficacy", "format": "in vivo", "settings": "tumor lysate immunoblot, 30 mg/kg", "description": "In vivo anti-metastatic and anti-tumor efficacy studies. 4T1 mouse mammary carcinoma cells is a highly aggressive cell line that forms tumors when grafted in Balb/c mice. […] All the in vivo experimental protocols were approved by the Institutional Animal Ethics Committee, CPCSEA, of the Indian Institute of Integrative Medicine, Jammu. The animals were maintained at 22° C. with a 12 h light-dark cycle and free access to feed and water inside the institutional animal house. Proper care was taken to maintain them in a healthy condition and to avoid any risk of possible pathogenic contaminations. For subcutaneous implantation of 4T1 cells, the Balb/c mice were distributed into four groups bearing five mice in each group. For tumor induction, 1.5 million 4T1 cells were suspended in serum-free media and injected into the mammary pad of the animal and kept in the animal house for tumor induction. After the tumor reached an adequate size (30-150 mm^3) the mice in the allotted groups were treated with vehicle (normal saline), 15 and 30 mg/kg 2a & 30 mg/kg DIM (positive control) for every alternate day and was continued for two weeks. After the treatment, the mice were sacrificed by cervical dislocation, and the tumor was dissected out from the mammary pad, the tumor volume was measured, and images were taken. Subsequently, to examine the anti-metastatic property of the compound 2a, the chest cavity was dissected to remove the lungs, and after washing with PBS, the metastatic nodules in the lung due to 4T1 migration were checked and subsequently counted.\nThe anti-proliferative as well as anti-metastatic role of compound 2a was studied in 4T1 allograft breast cancer model. Briefly, 1.5×10^6 4T1 mammary breast cancer cells were injected in mouse mammary pad and kept undisturbed until the formation of tumor. Subsequently, the mice were treated with 15 and 30 mg/kg of compound 2a along with a positive control 30 mg/kg di-indoyl methane (DIM) molecule and normal saline as vehicle. The drugs were administered intraperitonially for each alternate day for 2 weeks. The animals were sacrificed and tumours were harvested from the mammary pad and tumor weight was measured (FIG. 7a & b). Moreover, the lungs were also removed and photographed to study the presence of metastatic patches. […] Furthermore, the tumors were subjected to tissue lysis and immunoblot analysis was performed to study the expression of Snail-1. Twist-1, STAT-3, Vimentin and E-cadherin."}, "Panc-1 cells": {"test_system": "Panc-1 cells", "assay": "MTT cell viability assay, Panc-1", "format": "cell-based", "settings": "pancreatic cancer cells", "description": "(§1) Cell viability assay: The cell viability was determined by the standard MTT assay method. Briefly, Panc-1, HCT-116, A549, PC3, MIAPaca-2, HT-29, MDA-MB-231, MCF7 cells, and fR2cells were seeded in 96 well tissue culture plates (Nunc) at a density of 4×10^3 cells per well and treated with varying concentrations of the test compounds in triplicates. DMSO was taken as a vehicle, and its final concentration was maintained at 0.2% in the culture medium. Doxorubicin was employed as a positive control. After 44 h of incubation, MTT dye solution was added into the medium, and cells were incubated for another 4 h at 37° C. in 5% CO2. The amount of colored formazan derivatives formed was measured by taking optical density (OD) using a microplate reader (TECAN, Infinite M200 Pro) at 570 nm, and the percentage of cell viability was calculated. The IC50 values were calculated using GraphPad Prism software (Version 5.0)."}, "MIAPaCa-2 cells [2]": {"test_system": "MIAPaCa-2 cells", "assay": "MTT cell viability assay, MIAPaCa-2", "format": "cell-based, human", "description": "as §1"}, "HCT-116 cells": {"test_system": "HCT-116 cells", "assay": "MTT cell viability assay, HCT-116", "format": "cell-based", "settings": "colorectal adenocarcinoma cells", "description": "as §1"}, "[3]": {"test_system": "human colorectal adenocarcinoma cell line (HT-29)", "assay": "MTT cell viability assay, HT-29", "format": "cell-based", "settings": "human colorectal adenocarcinoma cell line", "description": "as §1"}, "[4]": {"test_system": "lung adenocarcinoma cells (A549)", "assay": "MTT cell viability assay, A549", "format": "cell-based", "description": "as §1"}, "PC3 cells": {"test_system": "PC3 cells", "assay": "MTT cell viability assay, PC3", "format": "cell-based", "description": "as §1"}, "MCF-7 cells": {"test_system": "MCF-7 cells", "assay": "MTT cell viability assay, MCF-7", "format": "cell-based", "settings": "breast cancer cell of epithelial origin", "description": "as §1"}, "[5]": {"assay": "MTT cell viability assay, fR2 normal epithelial cells", "format": "cell-based, human", "settings": "human, fR2 normal epithelial cells; MTT, 48 h; normal epithelial cell line; read-out: Cytotoxicity (IC50) fR2", "description": "as §1"}, "MIAPaCa-2 cells [6]": {"test_system": "MIAPaCa-2 cells", "assay": "Cell scatter assay", "format": "cell-based, human", "settings": "MIAPaCa-2, 1, 2, 3 μM, 36 h, compared to vehicle and parent molecule", "description": "Cell scatter assay MIAPaCa-2 cells were seeded onto a 12 well plate at a seeding density of 500 cells/well and kept for 4-5 days, and there was the formation of scatter colonies since the cell line itself is a metastatic cell line. Accordingly, they were treated with 1 μM, 2 μM & 3 μM of compound 2, 2a, 2b, 3, 3a, 4, 4a & 4b for 36 h, and upon termination, they were washed with PBS and observed under an inverted microscope at 20× magnification (FIG. 3)."}, "[7]": {"settings": "Homo sapiens, PANC-1, 48 h, read-out: Cytotoxicity (IC50) Panc-1, MTT, 48 h"}, "[8]": {"settings": "Homo sapiens, MIA PaCa-2, 48 h, read-out: Cytotoxicity (IC50) MIAPaCa-2, MTT, 48 h"}, "[9]": {"settings": "Homo sapiens, HCT-116, 48 h, read-out: Cytotoxicity (IC50) HCT-116, MTT, 48 h"}, "[10]": {"settings": "Homo sapiens, HT-29, 48 h, read-out: Cytotoxicity (IC50) HT-29, MTT, 48 h"}, "[11]": {"settings": "Homo sapiens, A549, 48 h, read-out: Cytotoxicity (IC50) A549, MTT, 48 h"}, "[12]": {"settings": "Homo sapiens, PC-3, 48 h, read-out: Cytotoxicity (IC50) PC3, MTT, 48 h"}, "[13]": {"settings": "Homo sapiens, MCF7, 48 h, read-out: Cytotoxicity (IC50) MCF-7, MTT, 48 h"}, "[14]": {"settings": "MTT, 48 h, read-out: Cytotoxicity (IC50) Panc-1"}, "[15]": {"settings": "MTT, 48 h, read-out: Cytotoxicity (IC50) MIAPaCa-2"}, "[16]": {"settings": "MTT, 48 h, read-out: Cytotoxicity (IC50) HCT-116"}, "[17]": {"settings": "MTT, 48 h, read-out: Cytotoxicity (IC50) HT-29"}, "[18]": {"settings": "MTT, 48 h, read-out: Cytotoxicity (IC50) A549"}, "[19]": {"settings": "MTT, 48 h, read-out: Cytotoxicity (IC50) PC3"}, "[20]": {"settings": "MTT, 48 h, read-out: Cytotoxicity (IC50) MCF-7"}}, "note": "Where two headings read alike, the source gives them in different places."}
{"smiles": "c1ccc2c(Cc3c[nH]c4ccccc34)c[nH]c2c1", "note": "[DIM, di-indoyl methane, reference compound]", "values": [{"measurement": "tumor expression of Snail-1, STAT-3 and Vimentin (positive control)", "setting": "[1]", "value": "decreases significantly"}]}
{"smiles": "CCCc1cc(O[C@@H]2OC(CO)[C@@H](O)C(O)C2O)c2c(c1)OC(C)(C)[C@@H]1CC=C(C)C[C@@H]21", "note": "(stereo partly drawn) [Compound 1a, Δ^8-tetrahydrocannabivarin-1-O-β-D-glucopyranoside]", "values": [{"measurement": "IC50", "setting": "Panc-1 cells; [7]", "value": 21.4, "unit": "µM"}, {"measurement": "IC50", "setting": "MIAPaCa-2 cells [2]; [8]", "value": "> 100000", "unit": "nM"}, {"measurement": "IC50", "setting": "HCT-116 cells; [9]", "value": 32.9, "unit": "µM"}, {"measurement": "IC50", "setting": "[3]; [10]", "value": "> 100", "unit": "µM"}, {"measurement": "IC50", "setting": "[4]; [11]", "value": 53.1, "unit": "µM"}, {"measurement": "IC50", "setting": "PC3 cells; [12]", "value": "> 100", "unit": "µM"}, {"measurement": "IC50", "setting": "MCF-7 cells; [13]", "value": 90.6, "unit": "µM"}]}
{"smiles": "CCCCCc1cc(O)c2c(c1)OC(C)(C)[C@@H]1CC=C(C)C[C@@H]21", "note": "[Compound 3, Δ^8-tetrahydrocannabinol, reference compound]", "values": [{"measurement": "IC50", "setting": "Panc-1 cells; [14]", "value": 50.9, "unit": "µM"}, {"measurement": "IC50", "setting": "MIAPaCa-2 cells [2]; [15]", "value": 2460, "unit": "nM"}, {"measurement": "IC50", "setting": "HCT-116 cells; [16]", "value": 27.3, "unit": "µM"}, {"measurement": "IC50", "setting": "[3]; [17]", "value": "> 100", "unit": "µM"}, {"measurement": "IC50", "setting": "[4]; [18]", "value": 11.6, "unit": "µM"}, {"measurement": "IC50", "setting": "PC3 cells; [19]", "value": 28, "unit": "µM"}, {"measurement": "IC50", "setting": "MCF-7 cells; [20]", "value": 26.7, "unit": "µM"}]}
{"smiles": "CCCCCc1cc(O[C@@H]2OC(CO)[C@@H](O)C(O)C2O)c2c(c1)OC(C)(C)c1ccc(C)cc1-2", "note": "(stereo partly drawn) [Compound 4a, Cannabinol-1-O-β-D-glucopyranoside]", "values": [{"measurement": "IC50", "setting": "Panc-1 cells; [7]", "value": 3.16, "unit": "µM"}, {"measurement": "IC50", "setting": "MIAPaCa-2 cells [2]; [8]", "value": 2580, "unit": "nM"}, {"measurement": "IC50", "setting": "HCT-116 cells; [9]", "value": 2.98, "unit": "µM"}, {"measurement": "IC50", "setting": "[3]; [10]", "value": 3.53, "unit": "µM"}, {"measurement": "IC50", "setting": "[4]; [11]", "value": 3.01, "unit": "µM"}, {"measurement": "IC50", "setting": "PC3 cells; [12]", "value": 51.4, "unit": "µM"}, {"measurement": "IC50", "setting": "MCF-7 cells; [13]", "value": 7.74, "unit": "µM"}, {"measurement": "IC50 at 48 h", "setting": "[5]", "value": "> 100", "unit": "µM"}, {"measurement": "cell scattering", "setting": "MIAPaCa-2 cells [6]", "value": "typical clumping of scatter cells"}]}
{"smiles": "CCCc1cc(O)c2c(c1)OC(C)(C)[C@@H]1CCC(C)=C[C@@H]21", "note": "[Compound 1, Δ^9-tetrahydrocannabivarin, reference compound]", "values": [{"measurement": "IC50", "setting": "Panc-1 cells; [14]", "value": 9.28, "unit": "µM"}, {"measurement": "IC50", "setting": "MIAPaCa-2 cells [2]; [15]", "value": 23200, "unit": "nM"}, {"measurement": "IC50", "setting": "HCT-116 cells; [16]", "value": 10.7, "unit": "µM"}, {"measurement": "IC50", "setting": "[3]; [17]", "value": 46.2, "unit": "µM"}, {"measurement": "IC50", "setting": "[4]; [18]", "value": 39.4, "unit": "µM"}, {"measurement": "IC50", "setting": "PC3 cells; [19]", "value": 88.2, "unit": "µM"}, {"measurement": "IC50", "setting": "MCF-7 cells; [20]", "value": "> 100", "unit": "µM"}]}
